The text below walks through data of ChEMBL document CHEMBL1133757, “Reporter affinity labels: an o-phthalaldehyde derivative of beta-naltrexamine as a fluorogenic ligand for opioid receptors” (J Med Chem, 2000).

In test [1] the target is Kappa-type opioid receptor (Homo sapiens, UniProt P41145). As to the kind of experiment: Inhibition of [3H]diprenorphine binding to Opioid receptor kappa 1.
The target of test [2] is Delta-type opioid receptor (Homo sapiens, UniProt P41143). As to the kind of experiment: Inhibition of [3H]- diprenorphine binding to Opioid receptor delta 1.
Test [3] addresses Mu-type opioid receptor (Homo sapiens, UniProt P35372). As to the kind of experiment: Inhibition of [3H]- diprenorphine binding to Opioid receptor mu 1 (83 fmol/mg protein) stably expressed in membranes from CHO cells. It counts as cell membranes.

Sequence of Kappa-type opioid receptor (P41145 whole entry): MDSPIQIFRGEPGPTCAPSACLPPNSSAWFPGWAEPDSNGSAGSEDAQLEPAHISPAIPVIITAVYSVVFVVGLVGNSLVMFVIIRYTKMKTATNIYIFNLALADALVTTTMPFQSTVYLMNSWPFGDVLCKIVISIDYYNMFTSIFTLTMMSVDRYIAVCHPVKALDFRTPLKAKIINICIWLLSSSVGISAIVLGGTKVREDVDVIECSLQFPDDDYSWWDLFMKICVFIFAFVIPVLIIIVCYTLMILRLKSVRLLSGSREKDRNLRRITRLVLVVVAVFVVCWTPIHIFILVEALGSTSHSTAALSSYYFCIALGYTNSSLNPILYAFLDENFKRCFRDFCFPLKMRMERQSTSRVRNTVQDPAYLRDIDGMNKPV
Sequence of Mu-type opioid receptor (P35372 whole entry): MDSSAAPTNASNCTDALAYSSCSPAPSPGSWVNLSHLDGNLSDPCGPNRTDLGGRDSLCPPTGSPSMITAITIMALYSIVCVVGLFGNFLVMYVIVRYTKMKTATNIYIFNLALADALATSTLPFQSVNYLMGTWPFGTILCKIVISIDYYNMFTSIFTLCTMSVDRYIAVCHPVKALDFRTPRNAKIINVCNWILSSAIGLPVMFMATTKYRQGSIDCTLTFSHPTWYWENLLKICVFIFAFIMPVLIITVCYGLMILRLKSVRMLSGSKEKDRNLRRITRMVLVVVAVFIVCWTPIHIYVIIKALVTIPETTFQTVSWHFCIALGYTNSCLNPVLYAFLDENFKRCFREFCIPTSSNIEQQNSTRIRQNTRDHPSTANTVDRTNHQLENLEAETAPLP
Sequence of Delta-type opioid receptor (P41143 whole entry): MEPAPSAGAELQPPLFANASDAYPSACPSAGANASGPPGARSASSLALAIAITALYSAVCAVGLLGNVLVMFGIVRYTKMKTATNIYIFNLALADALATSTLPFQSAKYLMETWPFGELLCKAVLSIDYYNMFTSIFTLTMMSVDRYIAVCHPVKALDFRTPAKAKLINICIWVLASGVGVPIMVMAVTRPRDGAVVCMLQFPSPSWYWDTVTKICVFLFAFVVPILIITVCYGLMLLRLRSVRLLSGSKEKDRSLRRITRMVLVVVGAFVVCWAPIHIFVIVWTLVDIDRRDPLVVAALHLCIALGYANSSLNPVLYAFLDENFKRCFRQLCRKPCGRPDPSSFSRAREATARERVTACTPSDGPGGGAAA

For the compound `O=Cc1ccc(C(=O)NCC(=O)N[C@@H]2CC[C@@]3(O)[C@H]4Cc5ccc(O)c6c5C3(CCN4CC3CC3)C2O6)cc1C=O` (stereo partly drawn), the Ki worked out at 0.7 nM in test [1], 2.57 nM in test [2] and 0.45 nM in test [3].

Broadly, the Ki is the equilibrium dissociation constant of an inhibitor or competing ligand from its target. The low end stands for tighter binding, the high end for weaker binding.
